What was measured:
[1] = test system: Hh signaling pathway (Gli1 mRNA) in ASZ001 cells; experiment: Gli1 mRNA down-regulation (qPCR) in ASZ001 cells; type: cell-based; details: Mus musculus; ASZ001 cells; mean ± SEM; read-out: Gli1 IC50
Method: Mouse embryonic fibroblast cell line (C3H10T1/2, wild-type, VDR^−/−, SuFu^−/−), mouse keratinocyte cell line (ASZ001), and human embryonic kidney cell line (HEK293T) were purchased from China Center for Type Culture Collection (CCTCC; Wuhan, Hubei, China) and cultured under standard protocols [16]. […] The loss of Ptch in ASZ001 cells prevents Smo inhibition, so down-regulating Gli1 reflects direct Smo inhibition by the compound.
(§4) RNA isolation in C3H10T1/2 cells was performed in 24-well plates (50,000 cells plated; TRIZOL Reagent); in ASZ001, cells were done in 35 mm dishes (300,000 cells plated; TRIZOL Reagent). cDNA synthesis was performed utilizing the SweScript All-in-One RT SuperMix Kit (Servicebio, Wuhan, China) per the manufacturer’s instructions on a BioRad S1000 Thermal Cycler (Hercules, CA, USA). qPCR (Hh signaling pathway and VDR) analysis of target genes was performed on Step OnePlus (ABI) using the Taqman Gene Expression Assays [18, 29]: mouse ActB (Mm00607939_s1), mouse GLI1 (Mm00494645_ml), mouse PTCH1(Mm00436026_m1), and mouse CYP24A1 (Mm00487244_ml). Relative gene expression levels were computed via the ΔΔCt method. ActinB mRNA expression levels of all samples were normalized to DMSO control ActinB mRNA levels (vehicle; set at 1.00). […] The mRNA expression levels from drug-treated samples were compared to OHCs levels (Gli1, PTCH) and DMSO control (Cyp24A1).

[2] = test system: ASZ001 cells; experiment: Anti-proliferation (MTS) in ASZ001 cells; type: cell-based; details: Mus musculus, 48 h incubation, mean ± SEM
[3] = test system: primary Ptch-CKO MB cells; experiment: Anti-proliferation (MTS) in primary Ptch-CKO MB cells; type: cell-based; details: Mus musculus, 48 h incubation, mean ± SEM
Method: Ptch-CKO MB cells, derived from a conditional Patched knockout mouse, lack Ptch-like ASZ001 cells. Consequently, the inhibitory effect of the compound on Ptch-CKO MB cells directly reflects its suppression of the canonical Hh signaling pathway. Cell viability was assessed by MTS proliferation assay kit (Promega, Madison, WI, USA) according to the manufacturer’s protocol. Culture conditions and experimental protocols to determine GI50 values in the primary murine Ptch-CKO MB cells were as previously described.

[4] = test system: VDR signaling (Cyp24A1 mRNA) in C3H10T1/2 cells; experiment: Cyp24A1 mRNA up-regulation (qPCR) in C3H10T1/2 cells; type: cell-based, mouse; details: Mus musculus, C3H 10T1/2, 5 μM with OHCs 5 μM, 24 h, relative to DMSO (set to 1.0)
Method: (§1) The VD3 analogues were initially assessed for their ability to inhibit the Hh signaling pathway by evaluating the effects on endogenous Gli1 mRNA levels at a single concentration (5 μM) co-administration of oxysterols (OHCs; 20(S)-hydroxycholesterol, 22(S)-hydroxycholesterol at 5 μM each) in C3H10T1/2 cells, an Hh-dependent mouse embryonic fibroblast (MEF) cell line. […] VD3 derivatives may retain some VDR agonistic activity, thereby compromising the selectivity of these compounds as Hh inhibitors. The selectivity profile of the analogues for Hh inhibition, compared to typical VDR activation, was assessed by measuring the ability to up-regulate Cyp24a1 mRNA levels in the same cellular system and by evaluating their binding to VDR using a fluorescence polarization-based competition assay (Table 1).
(§2) Mouse embryonic fibroblast cell line (C3H10T1/2, wild-type, VDR^−/−, SuFu^−/−), mouse keratinocyte cell line (ASZ001), and human embryonic kidney cell line (HEK293T) were purchased from China Center for Type Culture Collection (CCTCC; Wuhan, Hubei, China) and cultured under standard protocols. […] Therefore, they can be used to assess the inhibitory strength of the Hh signaling and the selectivity of the VDR signaling. VDR^−/− and SuFu^−/− C3H10T1/2 cells were used to study compounds selectivity for Hh and VDR signaling. If compounds regulate Hh signaling independently of VDR, their ability to down-regulate Gli1 mRNA expression should be abolished in SuFu^−/− C3H10T1/2 cells. […] The loss of Ptch in ASZ001 cells […], so down-regulating Gli1 reflects direct Smo inhibition by the compound. Comparing results from ASZ001 and C3H10T1/2 cells highlights the compound’s inhibition of the Hh signaling pathway.
(§3) RNA isolation in C3H10T1/2 cells was performed in 24-well plates (50,000 cells plated; TRIZOL Reagent); in ASZ001, cells were done in 35 mm dishes (300,000 cells plated; TRIZOL Reagent). cDNA synthesis was performed utilizing the SweScript All-in-One RT SuperMix Kit (Servicebio, Wuhan, China) per the manufacturer’s instructions on a BioRad S1000 Thermal Cycler (Hercules, CA, USA). qPCR (Hh signaling pathway and VDR) analysis of target genes was performed on Step OnePlus (ABI) using the Taqman Gene Expression Assays: mouse ActB (Mm00607939_s1), mouse GLI1 (Mm00494645_ml), mouse PTCH1(Mm00436026_m1), and mouse CYP24A1 (Mm00487244_ml). Relative gene expression levels were computed via the ΔΔCt method. ActinB mRNA expression levels of all samples were normalized to DMSO control ActinB mRNA levels (vehicle; set at 1.00). […] The mRNA expression levels from drug-treated samples were compared to OHCs levels (Gli1, PTCH) and DMSO control (Cyp24A1).

[5] = test system: VDR signaling (Cyp24A1 mRNA) in ASZ001 cells; experiment: Cyp24A1 mRNA expression (qPCR) in ASZ001 cells; type: cell-based; details: Mus musculus; ASZ001 cells; 5 μM, 24 h; DMSO set to 1.0; read-out: Cyp24A1 mRNA levels relative to DMSO
Method: as §4

[6] = target: T1, recombinant VDR (Homo sapiens, UniProt P11473); experiment: VDR binding, fluorescence polarization-based competition assay (PolarScreen VDR Competitor Assay Red); details: compounds evaluated at 100 μM
T1 construct: purchased Thermo Fisher Scientific
T1 sequence (P11473 1-427): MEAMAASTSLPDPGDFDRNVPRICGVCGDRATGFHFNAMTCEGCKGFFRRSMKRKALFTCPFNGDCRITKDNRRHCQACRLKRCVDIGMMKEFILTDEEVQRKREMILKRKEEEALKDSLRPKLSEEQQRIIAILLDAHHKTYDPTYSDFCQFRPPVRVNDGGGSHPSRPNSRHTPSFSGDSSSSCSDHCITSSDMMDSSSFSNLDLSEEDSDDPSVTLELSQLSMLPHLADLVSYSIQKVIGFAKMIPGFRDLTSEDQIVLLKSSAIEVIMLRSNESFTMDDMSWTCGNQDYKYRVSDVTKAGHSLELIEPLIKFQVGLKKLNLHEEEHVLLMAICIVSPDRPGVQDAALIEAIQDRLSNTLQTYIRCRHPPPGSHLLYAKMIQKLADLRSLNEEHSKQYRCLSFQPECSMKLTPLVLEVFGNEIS
Method: as §1
VDR binding assay was performed using a PolarScreen VDR Competitor Assay Red kit (Thermo Fisher Scientific, Carlsbad, CA, USA) per the manufacturer’s instructions. Compounds were evaluated at 100 μM in 2.5% final DMSO in triplicate. Calcitriol is utilized as a positive control for VDR binding.

[7] = test system: Hh signaling pathway (Gli1 mRNA) in C3H10T1/2 cells; experiment: Gli1 mRNA down-regulation (qPCR) in OHC-stimulated C3H10T1/2 cells; type: cell-based, mouse; details: Mus musculus; for mrna remaining at 5 µM: C3H 10T1/2, 5 μM with OHCs 5 μM, 24 h, relative Gli1 mRNA levels compared to OHCs (set to 100%); for IC50: C3H 10T1/2, mean ± SEM
Method: as §1, §2, §3

[8] = test system: Hh signaling pathway (Ptch mRNA) in C3H10T1/2 cells; experiment: Ptch mRNA down-regulation (qPCR) in C3H10T1/2 cells; type: cell-based; details: Mus musculus, C3H 10T1/2; C3H10T1/2 cells; mean ± SEM; read-out: Ptch IC50
Method: as §4

Row | Compound | IC50 [1] [µM] | GI50 [2] [µM] | GI50 [3] [µM] | fold induction at 5 µM [4] | fold induction at 5 µM [5] | VDR Binding [6] [µM] | mrna remaining at 5 µM [7] [%] | IC50 [7] [µM] | IC50 [8] [µM]
1 | COc1ccc(C(=O)O[C@H]2CCC[C@]3(C)[C@@H]([C@H](C)COCC(C)(C)O)CC[C@@H]23)cc1O [Compound 4g] | 3.7 ± 0.7 | 7.8 ± 1.1 | 3.4 ± 0.5 | 83.6 ± 15.6 | 56.8 ± 5.1 | >100 | 2.5 ± 0.5 | 2.1 ± 0.2 | 3.8 ± 0.4
2 | CC(C)COC[C@@H](C)[C@H]1CC[C@H]2[C@@H](OC(=O)c3ccc(F)cc3)CCC[C@]12C [Compound 3f] | – | – | – | 46.5 ± 3.4 | – | >100 | 45.4 ± 3.1 | – | –
3 | C[C@H](COCC(C)(C)O)[C@H]1CC[C@H]2[C@@H](OC(=O)c3ccc([N+](=O)[O-])cc3)CCC[C@]12C [Compound 4b] | – | – | – | 92.7 ± 15.9 | – | >100 | 54.6 ± 3.8 | – | –
4 | CC(C)COC[C@@H](C)[C@H]1CC[C@H]2[C@@H](OC(=O)c3cccc(O)c3)CCC[C@]12C [Compound 3i] | 5.2 ± 0.3 | > 20 | 8.1 ± 1.1 | 13.8 ± 1.4 | 2.3 ± 0.2 | >100 | 6.1 ± 1.1 | 2.3 ± 0.7 | 5.6 ± 0.6
5 | CC(C)COC[C@@H](C)[C@H]1CC[C@H]2[C@@H](OC(=O)c3cc(N)cc(N)c3)CCC[C@]12C [Compound 3h] | 4.7 ± 0.4 | > 20 | > 10 | 6.7 ± 0.8 | 5.1 ± 0.3 | >100 | 5.6 ± 0.9 | 3.2 ± 0.3 | 7.8 ± 0.6
6 | C[C@H](COCC(C)(C)O)[C@H]1CC[C@H]2[C@@H](OC(=O)c3ccccc3)CCC[C@]12C [Compound 4a] | – | – | – | 94.6 ± 12.7 | – | >100 | 43.8 ± 3.6 | – | –
7 | C[C@H](COCC(C)(C)O)[C@H]1CC[C@H]2[C@@H](OC(=O)c3ccc(O)cc3)CCC[C@]12C [Compound 4j] | – | > 20 | > 10 | 127 ± 20.5 | – | >100 | 4.6 ± 0.8 | – | –
8 | C[C@H](COCC(C)(C)O)[C@H]1CC[C@H]2[C@@H](OC(=O)c3ccc(Cl)cc3)CCC[C@]12C [Compound 4e] | – | – | – | 105 ± 21.4 | – | >100 | 26.1 ± 2.1 | – | –
9 | CC(C)COC[C@@H](C)[C@H]1CC[C@H]2[C@@H](OC(=O)c3ccccc3)CCC[C@]12C [Compound 3a] | – | – | – | 35.7 ± 2.6 | – | >100 | 56.8 ± 3.5 | – | –
10 | COc1cccc(C(=O)O[C@H]2CCC[C@]3(C)[C@@H]([C@H](C)COCC(C)(C)O)CC[C@@H]23)c1 [Compound 4d] | – | – | – | 86.8 ± 11.3 | – | >100 | 62.3 ± 4.8 | – | –
11 | CC(C)COC[C@@H](C)[C@H]1CC[C@H]2[C@@H](OC(=O)c3ccc([N+](=O)[O-])cc3)CCC[C@]12C [Compound 3b] | – | – | – | 24.6 ± 2.1 | – | >100 | 74.2 ± 4.1 | – | –

Reference: paper PMC11855207, “Synthesis and Evaluation of Aromatic A-Ring 23-Oxavitamin D3 Analogues as Hedgehog Pathway Inhibitors” (International Journal of Molecular Sciences, 2025)
